These results are taken from ChEMBL document CHEMBL4265930, “Dual potent ALK and ROS1 inhibitors combating drug-resistant mutants: Synthesis and biological evaluation of aminopyridine-containing diarylaminopyrimidine derivatives” (Eur J Med Chem, 2018).

The subject of assay [1] is ALK tyrosine kinase receptor (Homo sapiens), Q9UM73 [L1196M]. The experiment in a line: Potency index, ratio of ceritinib IC50 to compound IC50 for human N-terminal GST-tagged ALK L1196M mutant cytoplasmic domain (1058 to 1620 residues) expressed in baculovirus expression system.
For assay [2], the system named is ALK tyrosine kinase receptor (Homo sapiens), Q9UM73 [G1202R]. Description: Potency index, ratio of ceritinib IC50 to compound IC50 for human N-terminal GST-tagged ALK G1202R mutant cytoplasmic domain (1058 to 1620 residues) expressed in baculovirus expression system.
Chain of ALK tyrosine kinase receptor (Homo sapiens), Q9UM73 [G1202R] (Q9UM73 whole entry G1202R, the tested form may be a part): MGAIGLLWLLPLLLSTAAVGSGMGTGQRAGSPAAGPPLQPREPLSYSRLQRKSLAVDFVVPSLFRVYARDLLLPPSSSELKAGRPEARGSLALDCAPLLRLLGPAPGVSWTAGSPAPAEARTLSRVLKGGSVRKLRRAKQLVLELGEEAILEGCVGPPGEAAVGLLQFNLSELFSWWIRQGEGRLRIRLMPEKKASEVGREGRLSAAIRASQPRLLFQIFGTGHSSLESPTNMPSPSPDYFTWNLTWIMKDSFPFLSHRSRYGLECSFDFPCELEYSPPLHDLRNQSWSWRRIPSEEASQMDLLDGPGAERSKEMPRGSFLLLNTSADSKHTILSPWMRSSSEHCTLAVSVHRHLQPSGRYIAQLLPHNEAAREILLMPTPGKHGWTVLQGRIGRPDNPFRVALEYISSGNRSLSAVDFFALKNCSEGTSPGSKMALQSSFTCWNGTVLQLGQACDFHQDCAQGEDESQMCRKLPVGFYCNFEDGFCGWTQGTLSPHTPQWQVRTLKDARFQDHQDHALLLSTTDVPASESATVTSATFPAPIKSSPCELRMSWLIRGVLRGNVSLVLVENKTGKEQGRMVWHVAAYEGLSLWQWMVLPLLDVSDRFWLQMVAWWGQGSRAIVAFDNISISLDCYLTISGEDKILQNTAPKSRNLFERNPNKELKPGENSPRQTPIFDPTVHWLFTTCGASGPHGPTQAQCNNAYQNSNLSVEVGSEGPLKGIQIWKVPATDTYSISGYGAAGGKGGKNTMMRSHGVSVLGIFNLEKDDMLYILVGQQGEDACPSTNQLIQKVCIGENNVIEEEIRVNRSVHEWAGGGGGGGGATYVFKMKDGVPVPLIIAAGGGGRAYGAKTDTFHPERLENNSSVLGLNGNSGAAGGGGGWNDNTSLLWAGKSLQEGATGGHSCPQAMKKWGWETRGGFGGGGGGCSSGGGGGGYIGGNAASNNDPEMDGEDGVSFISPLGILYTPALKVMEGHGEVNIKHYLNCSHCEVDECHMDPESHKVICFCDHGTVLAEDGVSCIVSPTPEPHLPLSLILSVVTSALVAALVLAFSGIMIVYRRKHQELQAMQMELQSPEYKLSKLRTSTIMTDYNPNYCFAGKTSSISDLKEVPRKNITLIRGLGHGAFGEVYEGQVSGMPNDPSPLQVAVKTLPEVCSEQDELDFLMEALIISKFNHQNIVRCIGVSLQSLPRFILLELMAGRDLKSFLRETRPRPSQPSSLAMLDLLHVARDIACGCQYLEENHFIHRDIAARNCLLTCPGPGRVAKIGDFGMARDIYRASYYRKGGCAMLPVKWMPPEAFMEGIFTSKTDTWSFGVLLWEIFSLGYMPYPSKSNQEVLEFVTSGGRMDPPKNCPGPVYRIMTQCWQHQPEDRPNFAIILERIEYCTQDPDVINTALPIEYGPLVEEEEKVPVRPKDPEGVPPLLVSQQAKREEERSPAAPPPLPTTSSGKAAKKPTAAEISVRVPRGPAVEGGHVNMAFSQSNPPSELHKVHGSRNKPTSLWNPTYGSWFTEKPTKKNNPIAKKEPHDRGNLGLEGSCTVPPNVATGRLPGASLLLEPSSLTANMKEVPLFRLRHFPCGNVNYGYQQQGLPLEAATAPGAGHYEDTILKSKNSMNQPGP
The subject of the next assay is HCC78. The experiment in a line: Antiproliferative activity against human HCC78 cells harboring SLC34A2-ROS1 after 72 hrs by MTT assay. The format is functional, cell-based. Particulars: HCC78, 72 h.
In assay [3] the target is Proto-oncogene tyrosine-protein kinase ROS (Homo sapiens, UniProt P08922). Description: Inhibition of human N-terminal GST-tagged ROS cytoplasmic domain (1883 to 2347 residues) expressed in baculovirus expression system after 1 hr by mobility shift assay.
In a further assay the test system is NCI-H2228. The experiment in a line: cells. Particulars: Homo sapiens, NCI-H2228, 72 h.
For assay [4], the target named is ALK tyrosine kinase receptor (Homo sapiens, UniProt Q9UM73, L1196M).
Chain of ALK tyrosine kinase receptor (Homo sapiens, UniProt Q9UM73, L1196M) (Q9UM73 19-1620 L1196M limits assumed): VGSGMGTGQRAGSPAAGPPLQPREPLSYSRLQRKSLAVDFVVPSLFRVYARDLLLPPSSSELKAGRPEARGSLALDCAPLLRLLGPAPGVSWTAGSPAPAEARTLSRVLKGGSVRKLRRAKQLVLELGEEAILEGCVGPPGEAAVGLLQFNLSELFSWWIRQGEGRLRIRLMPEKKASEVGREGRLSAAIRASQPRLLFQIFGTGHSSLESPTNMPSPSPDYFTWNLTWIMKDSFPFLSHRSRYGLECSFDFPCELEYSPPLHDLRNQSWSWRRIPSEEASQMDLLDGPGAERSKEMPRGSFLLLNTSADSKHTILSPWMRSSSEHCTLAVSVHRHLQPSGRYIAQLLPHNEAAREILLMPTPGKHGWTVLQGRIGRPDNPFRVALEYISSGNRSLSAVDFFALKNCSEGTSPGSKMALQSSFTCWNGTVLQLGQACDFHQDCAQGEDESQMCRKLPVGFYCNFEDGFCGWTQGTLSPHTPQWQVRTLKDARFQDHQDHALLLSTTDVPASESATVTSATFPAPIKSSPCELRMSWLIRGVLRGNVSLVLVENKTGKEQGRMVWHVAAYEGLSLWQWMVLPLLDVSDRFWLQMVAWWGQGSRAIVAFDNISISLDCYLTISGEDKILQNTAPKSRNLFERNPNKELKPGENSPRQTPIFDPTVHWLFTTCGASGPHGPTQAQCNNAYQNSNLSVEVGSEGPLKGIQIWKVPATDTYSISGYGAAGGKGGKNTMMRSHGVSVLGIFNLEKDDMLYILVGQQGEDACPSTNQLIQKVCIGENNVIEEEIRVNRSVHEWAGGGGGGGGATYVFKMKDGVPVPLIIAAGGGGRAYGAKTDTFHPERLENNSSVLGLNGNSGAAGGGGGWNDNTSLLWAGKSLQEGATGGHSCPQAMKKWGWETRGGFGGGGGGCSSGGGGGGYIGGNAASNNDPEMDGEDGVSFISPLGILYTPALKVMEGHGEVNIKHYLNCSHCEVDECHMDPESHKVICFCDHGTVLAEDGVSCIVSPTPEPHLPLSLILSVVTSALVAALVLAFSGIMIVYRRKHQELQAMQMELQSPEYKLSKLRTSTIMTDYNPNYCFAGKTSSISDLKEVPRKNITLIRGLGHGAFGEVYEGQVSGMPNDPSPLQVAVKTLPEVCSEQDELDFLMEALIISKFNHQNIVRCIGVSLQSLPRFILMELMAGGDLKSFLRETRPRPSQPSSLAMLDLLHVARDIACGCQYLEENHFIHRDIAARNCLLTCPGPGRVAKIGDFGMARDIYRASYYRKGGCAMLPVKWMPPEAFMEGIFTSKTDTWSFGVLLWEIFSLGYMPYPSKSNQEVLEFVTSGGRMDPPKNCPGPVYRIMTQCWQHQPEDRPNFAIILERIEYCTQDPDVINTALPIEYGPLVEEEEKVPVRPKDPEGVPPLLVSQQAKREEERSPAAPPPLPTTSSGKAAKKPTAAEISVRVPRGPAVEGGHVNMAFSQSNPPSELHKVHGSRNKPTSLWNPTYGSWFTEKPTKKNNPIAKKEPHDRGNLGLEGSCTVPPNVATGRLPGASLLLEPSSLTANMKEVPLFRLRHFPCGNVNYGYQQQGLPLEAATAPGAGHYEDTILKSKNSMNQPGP
Description: Inhibition of human N-terminal GST-tagged ALK L1196M mutant cytoplasmic domain (1058 to 1620 residues) expressed in baculovirus expression system after 1 hr by mobility shift assay
Assay [5] addresses T1, ALK tyrosine kinase receptor (Homo sapiens, UniProt Q9UM73). The experiment in a line: Inhibition of ALK phosphorylation in human KARPAS299 cells after 24 hrs by Western blot analysis. The format is cell-based.
Target sequence in this assay (Q9UM73 19-1620 limits assumed): as the sequence (Q9UM73 19-1620 L1196M limits assumed) above, with M1178L counted along it
A further assay concerns BaF3. The experiment in a line: cells. The following applies: Mus musculus, BaF3, 72 h.
Assay [6] concerns KARPAS-299. The experiment in a line: Induction of apoptosis in human KARPAS299 cells assessed as late apoptotic cells at 25 to 50 nM after 24 hrs by AO/EB double staining based inverted fluorescence microscopy. The format is functional, cell-based.
The subject of assay [7] is KARPAS-299. Description: cells. Particulars: Homo sapiens, KARPAS-299, 72 h.
Description: Antiproliferative activity against human KARPAS299 cells harboring NPM-ALK after 72 hrs by MTT assay
For the next assay, the system named is A549. Description: cells. The following applies: Homo sapiens, A549, 72 h.
Assay [8] addresses T1, ALK tyrosine kinase receptor.
Target sequence in this assay (Q9UM73 whole entry): as the sequence (Q9UM73 whole entry G1202R, the tested form may be a part) above, with R1202G counted along it
Description: Inhibition of human N-terminal GST-tagged ALK cytoplasmic domain (1058 to 1620 residues) expressed in baculovirus expression system after 1 hr by mobility shift assay
Assay [9] shares this target. The experiment in a line: Inhibition of ALK in human KARPAS299 cells assessed as decrease in STAT3 phosphorylation after 24 hrs by Western blot analysis. The class given is cell-based.
Target sequence in this assay (Q9UM73 19-1620 limits assumed): as the sequence (Q9UM73 19-1620 L1196M limits assumed) above, with M1178L counted along it
Assay [10] concerns KARPAS-299. Description: Induction of apoptosis in human KARPAS299 cells assessed as early apoptotic cells at 25 to 50 nM after 24 hrs by Hoechst 33258 staining based inverted fluorescence microscopy. The format is functional, cell-based.
Assay [11] has as its target ALK tyrosine kinase receptor (Homo sapiens, UniProt Q9UM73, G1202R).
In assay [12] the target is T1, ALK tyrosine kinase receptor. Description: Inhibition of ALK in human KARPAS299 cells assessed as decrease in Akt phosphorylation after 24 hrs by Western blot analysis. The format is cell-based.
Target sequence in this assay (Q9UM73 19-1620 limits assumed): as the sequence (Q9UM73 19-1620 L1196M limits assumed) above, with M1178L counted along it
Assay [13] addresses Epidermal growth factor receptor (Homo sapiens, UniProt P00533).
Description: Inhibition of human N-terminal GST-tagged EGFR cytoplasmic domain (669 to 1210 residues) expressed in baculovirus expression system after 1 hr by mobility shift assay

Activity calls are given as the source filed them. The rule behind the calls is not given here. Some results are limits rather than exact numbers.

Chain of ALK tyrosine kinase receptor (Homo sapiens), Q9UM73 [L1196M] (Q9UM73 whole entry L1196M, looked up, the tested form may be a part): as the sequence (Q9UM73 whole entry G1202R, the tested form may be a part) above, with L1196M, R1202G counted along it
Chain of Epidermal growth factor receptor (P00533 whole entry): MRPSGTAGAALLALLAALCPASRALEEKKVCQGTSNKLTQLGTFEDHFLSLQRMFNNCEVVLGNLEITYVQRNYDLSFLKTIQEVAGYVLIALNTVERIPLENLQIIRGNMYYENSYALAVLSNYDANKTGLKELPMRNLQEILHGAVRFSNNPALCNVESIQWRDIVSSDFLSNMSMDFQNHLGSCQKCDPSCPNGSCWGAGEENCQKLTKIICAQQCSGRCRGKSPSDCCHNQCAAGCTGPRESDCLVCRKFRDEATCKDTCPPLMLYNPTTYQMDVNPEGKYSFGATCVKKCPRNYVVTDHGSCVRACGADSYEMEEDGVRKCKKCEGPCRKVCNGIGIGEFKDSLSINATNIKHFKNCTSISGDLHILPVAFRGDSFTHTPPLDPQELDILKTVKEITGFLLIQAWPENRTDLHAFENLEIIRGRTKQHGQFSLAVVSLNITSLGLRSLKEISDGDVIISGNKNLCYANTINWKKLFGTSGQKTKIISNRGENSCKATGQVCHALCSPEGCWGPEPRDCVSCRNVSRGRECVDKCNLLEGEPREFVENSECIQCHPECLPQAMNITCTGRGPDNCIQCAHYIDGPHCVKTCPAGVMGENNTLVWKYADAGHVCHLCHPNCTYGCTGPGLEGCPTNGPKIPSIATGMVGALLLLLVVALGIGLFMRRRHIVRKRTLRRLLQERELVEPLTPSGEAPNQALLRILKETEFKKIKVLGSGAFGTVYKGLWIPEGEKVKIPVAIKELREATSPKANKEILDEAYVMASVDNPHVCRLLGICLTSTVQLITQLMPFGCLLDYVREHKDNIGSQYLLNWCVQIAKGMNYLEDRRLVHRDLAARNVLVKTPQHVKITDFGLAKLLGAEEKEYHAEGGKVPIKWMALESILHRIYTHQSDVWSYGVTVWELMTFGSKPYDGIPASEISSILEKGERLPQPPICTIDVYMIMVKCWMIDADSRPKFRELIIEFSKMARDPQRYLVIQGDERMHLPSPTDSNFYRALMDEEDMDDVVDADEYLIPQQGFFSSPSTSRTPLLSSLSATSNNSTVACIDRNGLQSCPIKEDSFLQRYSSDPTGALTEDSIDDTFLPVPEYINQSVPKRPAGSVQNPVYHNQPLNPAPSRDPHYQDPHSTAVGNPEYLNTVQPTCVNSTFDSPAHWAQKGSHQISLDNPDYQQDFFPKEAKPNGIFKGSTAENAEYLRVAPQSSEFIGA
Chain of ALK tyrosine kinase receptor (Homo sapiens, UniProt Q9UM73, G1202R) (Q9UM73 19-1620 G1202R limits assumed): as the sequence (Q9UM73 19-1620 L1196M limits assumed) above, with M1178L, G1184R counted along it
Description for A549: Antiproliferative activity against human A549 cells after 72 hrs by MTT assay
Description for NCI-H2228: Antiproliferative activity against human NCI-H2228 cells harboring EML4-ALK after 72 hrs by MTT assay

For the compound `COc1nc(N2CCN(C)CC2)ccc1Nc1ncc(Cl)c(Nc2ccccc2NS(C)(=O)=O)n1`, the Ratio IC50 in assay [1] and in [2] was 11 to 23 throughout. Also, the IC50 with HCC78 was found to be 43 nM; in assay [3], 2300 nM; in the assay with NCI-H2228 it was 12 nM; in [4], 1300 nM; in the assay with BaF3, 30 nM; in the assay on KARPAS-299 [7] it was 10 nM. The IC50 with A549 was above 1000 nM; in assay [8], 2100 nM; in [11] it was 3.9 µM; in assay [13] it was above 1 mM. Moreover, the inhibition entry in assay [5], in assay [9] and in assay [12] was “Dose-dependent effect” each time. Also, the result with KARPAS-299 [6] and in the assay with KARPAS-299 [10] was Active.
